Measurements from ChEMBL document CHEMBL3734705, “Synthesis and in vitro cytotoxicity of novel C-12 substituted-14-deoxy-andrographolide derivatives as potent anti-cancer agents” (2015).

How the values were obtained:
[1] = Cytotoxicity against human MOLT4 cells assessed as growth level at 10 uM after 48 hrs by SRB assay; format: functional, MOLT-4
[2] = system: U-251; experiment: Cytotoxicity against human U251 cells assessed as growth inhibition at 10 uM after 48 hrs by SRB assay; format: functional; details: U-251, 48 h, read-out: GI
[3] = system: 786-0; experiment: Cytotoxicity against human 786-0 cells assessed as growth level at 10 uM after 48 hrs by SRB assay; format: functional
[4] = Cytotoxicity against human IGROV1 cells assessed as growth level at 10 uM after 48 hrs by SRB assay; format: functional, IGROV-1
[5] = Cytotoxicity against human COLO205 cells assessed as growth inhibition at 10 uM after 48 hrs by SRB assay; format: functional; details: COLO 205, 48 h, read-out: GI
[6] = system: A549; experiment: Cytotoxicity against human A549 cells assessed as growth inhibition at 10 uM after 48 hrs by SRB assay; format: functional; details: A549, 48 h, read-out: GI
[7] = Cytotoxicity against human SW620 cells assessed as growth level at 10 uM after 48 hrs by SRB assay; format: functional, SW-620
[8] = Cytotoxicity against human SNB75 cells assessed as growth inhibition at 10 uM after 48 hrs by SRB assay; format: functional; details: SNB-75, 48 h, read-out: GI
[9] = Cytotoxicity against human TK10 cells assessed as growth inhibition at 10 uM after 48 hrs by SRB assay; format: functional; details: TK-10, 48 h, read-out: GI
[10] = system: MCF7; experiment: Cytotoxicity against human MCF7 cells assessed as growth inhibition at 10 uM after 48 hrs by SRB assay; format: functional; details: MCF7, 48 h, read-out: GI
[11] = Cytotoxicity against human TK10 cells assessed as growth level at 10 uM after 48 hrs by SRB assay; format: functional, TK-10
[12] = Cytotoxicity against human OVCAR8 cells assessed as growth level at 10 uM after 48 hrs by SRB assay; format: functional, OVCAR-8
[13] = Cytotoxicity against human COLO205 cells assessed as growth level at 10 uM after 48 hrs by SRB assay; format: functional, COLO 205
[14] = system: NCI-H226; experiment: Cytotoxicity against human NCI-H226 cells assessed as growth level at 10 uM after 48 hrs by SRB assay; format: functional
[15] = Cytotoxicity against human Hs578T cells assessed as growth level at 10 uM after 48 hrs by SRB assay; format: functional, Hs-578T
[16] = system: NCI-H522; experiment: Cytotoxicity against human NCI-H522 cells assessed as growth inhibition at 10 uM after 48 hrs by SRB assay; format: functional; details: NCI-H522, 48 h, read-out: GI
[17] = system: Malme-3M; experiment: Cytotoxicity against human MALME-3M cells assessed as growth inhibition at 10 uM after 48 hrs by SRB assay; format: functional; details: read-out: GI
[18] = system: SR; experiment: Cytotoxicity against human SR cells assessed as growth inhibition at 10 uM after 48 hrs by SRB assay; format: functional; details: read-out: GI
[19] = Cytotoxicity against human HOP62 cells assessed as growth level at 10 uM after 48 hrs by SRB assay; format: functional, HOP-62
[20] = system: SK-MEL-5; experiment: Cytotoxicity against human SK-MEL-5 cells assessed as growth inhibition at 10 uM after 48 hrs by SRB assay; format: functional; details: SK-MEL-5, 48 h, read-out: GI
[21] = system: NCI-H23; experiment: Cytotoxicity against human NCI-H23 cells assessed as growth level at 10 uM after 48 hrs by SRB assay; format: functional
[22] = system: A498; experiment: Cytotoxicity against human A498 cells assessed as growth level at 10 uM after 48 hrs by SRB assay; format: functional
[23] = Cytotoxicity against human OVCAR5 cells assessed as growth level at 10 uM after 48 hrs by SRB assay; format: functional, OVCAR-5
[24] = system: CCRF-CEM; experiment: Cytotoxicity against human CCRF-CEM cells assessed as growth level at 10 uM after 48 hrs by SRB assay; format: functional
[25] = Cytotoxicity against human OVCAR3 cells assessed as growth level at 10 uM after 48 hrs by SRB assay; format: functional, OVCAR-3
[26] = system: NCI-H460; experiment: Cytotoxicity against human NCI-H460 cells assessed as growth inhibition at 10 uM after 48 hrs by SRB assay; format: functional; details: NCI-H460, 48 h, read-out: GI
[27] = Cytotoxicity against human OVCAR4 cells assessed as growth inhibition at 10 uM after 48 hrs by SRB assay; format: functional; details: OVCAR-4, 48 h, read-out: GI
[28] = Cytotoxicity against human SW620 cells assessed as growth inhibition at 10 uM after 48 hrs by SRB assay; format: functional; details: SW-620, 48 h, read-out: GI
[29] = Cytotoxicity against human UACC257 cells assessed as growth level at 10 uM after 48 hrs by SRB assay; format: functional, UACC-257
[30] = system: K562; experiment: Cytotoxicity against human K562 cells assessed as growth level at 10 uM after 48 hrs by SRB assay; format: functional
[31] = Cytotoxicity against human HL-60(TB) cells assessed as growth inhibition at 10 uM after 48 hrs by SRB assay; format: functional; details: HL-60, 48 h, read-out: GI
[32] = system: SK-MEL-5; experiment: Cytotoxicity against human SK-MEL-5 cells assessed as growth level at 10 uM after 48 hrs by SRB assay; format: functional
[33] = Cytotoxicity against human PC3 cells assessed as growth level at 10 uM after 48 hrs by SRB assay; format: functional, PC-3
[34] = system: KM12; experiment: Cytotoxicity against human KM12 cells assessed as growth level at 10 uM after 48 hrs by SRB assay; format: functional
[35] = Cytotoxicity against human UO31 cells assessed as growth level at 10 uM after 48 hrs by SRB assay; format: functional, UO-31
[36] = system: MDA-MB-231; experiment: Cytotoxicity against human MDA-MB-231 cells assessed as growth level at 10 uM after 48 hrs by SRB assay; format: functional
[37] = system: SN12C; experiment: Cytotoxicity against human SN12C cells assessed as growth level at 10 uM after 48 hrs by SRB assay; format: functional
[38] = Cytotoxicity against human OVCAR8 cells assessed as growth inhibition at 10 uM after 48 hrs by SRB assay; format: functional; details: OVCAR-8, 48 h, read-out: GI
[39] = system: ACHN; experiment: Cytotoxicity against human ACHN cells assessed as growth level at 10 uM after 48 hrs by SRB assay; format: functional
[40] = Cytotoxicity against human MOLT4 cells assessed as growth inhibition at 10 uM after 48 hrs by SRB assay; format: functional; details: MOLT-4, 48 h, read-out: GI
[41] = system: M14; experiment: Cytotoxicity against human M14 cells assessed as growth inhibition at 10 uM after 48 hrs by SRB assay; format: functional; details: M14, 48 h, read-out: GI
[42] = system: NCI-H460; experiment: Cytotoxicity against human NCI-H460 cells assessed as growth level at 10 uM after 48 hrs by SRB assay; format: functional
[43] = Cytotoxicity against human IGROV1 cells assessed as growth inhibition at 10 uM after 48 hrs by SRB assay; format: functional; details: IGROV-1, 48 h, read-out: GI
[44] = Cytotoxicity against human Hs578T cells assessed as growth inhibition at 10 uM after 48 hrs by SRB assay; format: functional; details: Hs-578T, read-out: GI

C=C1CC[C@@H]2[C@](C)(COC(C)=O)[C@H](OC(C)=O)CC[C@@]2(C)[C@@H]1C/C=C1/C(=O)OC[C@H]1OC(C)=O
Activity [1]: -6.05%
inhibition of growth at 10 µM [2]: 46%
Activity [3]: -10.88%
Activity [4]: 102.65%
inhibition of growth at 10 µM [5]: 78%
inhibition of growth at 10 µM [6]: 14.2%
Activity [7]: -21.85%
inhibition of growth at 10 µM [8]: 55.1%
inhibition of growth at 10 µM [9]: 83.1%
inhibition of growth at 10 µM [10]: 77.1%
Activity [11]: 16.88%
Activity [12]: 27.13%
Activity [13]: 22.03%
Activity [14]: 23.61%
Activity [15]: 100.18%
inhibition of growth at 10 µM [16]: 41.6%
inhibition of growth at 10 µM [17]: 22.3%
inhibition of growth at 10 µM [18]: 94.4%
Activity [19]: 75.75%
inhibition of growth at 10 µM [20]: 43.8%
Activity [21]: 80.92%
Activity [22]: 90.57%
Activity [23]: 53.7%
Activity [24]: -11.4%
Activity [25]: -21.32%
inhibition of growth at 10 µM [26]: 1.96%
inhibition of growth at 10 µM [27]: 33.5%
inhibition of growth at 10 µM [28]: 21.9%
Activity [29]: 66.52%
Activity [30]: 11.07%
inhibition of growth at 10 µM [31]: 20.9%
Activity [32]: 56.18%
Activity [33]: 88.46%
Activity [34]: 52.83%
Activity [35]: 62.83%
Activity [36]: 95.84%
Activity [37]: 33.42%
inhibition of growth at 10 µM [38]: 72.9%
Activity [39]: 19.55%
inhibition of growth at 10 µM [40]: 6.05%
inhibition of growth at 10 µM [41]: 64.6%
Activity [42]: 98.04%

C=C1CC[C@@H]2[C@](C)(COC(C)=O)[C@H](OC(C)=O)CC[C@@]2(C)[C@@H]1CC(NCc1ccccc1)C1=CCOC1=O (mixture of isomers)
Activity [1]: -3.86%
inhibition of growth at 10 µM [2]: 52.4%
Activity [3]: 71.35%
Activity [4]: 62.9%
inhibition of growth at 10 µM [5]: 54.4%
inhibition of growth at 10 µM [6]: 50.8%
Activity [7]: 47.31%
inhibition of growth at 10 µM [8]: 23.1%
inhibition of growth at 10 µM [10]: 70.2%
inhibition of growth at 10 µM [43]: 37.1%
Activity [12]: 28.22%
Activity [13]: 45.59%
Activity [14]: 11.36%
Activity [15]: 86.43%
inhibition of growth at 10 µM [44]: 13.6%
inhibition of growth at 10 µM [17]: 22.9%
inhibition of growth at 10 µM [18]: 79.1%
Activity [19]: 89.01%
Activity [21]: 57.36%
Activity [22]: 56.22%
Activity [23]: 101.59%
Activity [24]: 20.9%
Activity [25]: 31.82%
inhibition of growth at 10 µM [26]: 51.6%
inhibition of growth at 10 µM [27]: 64.1%
inhibition of growth at 10 µM [28]: 52.7%
Activity [29]: 32.81%
Activity [30]: 24.65%
inhibition of growth at 10 µM [31]: 9.93%
Activity [33]: 10.07%
Activity [34]: 39.08%
Activity [35]: 29.11%
Activity [36]: 64.69%
Activity [37]: 58.19%
inhibition of growth at 10 µM [38]: 71.8%
Activity [39]: 46.39%
inhibition of growth at 10 µM [40]: 3.86%
inhibition of growth at 10 µM [41]: 57.9%
Activity [42]: 48.43%
